We go through 48 compounds from patent US11780845B2 (Relay Therapeutics, Inc., priority 2019, dated 2023).

The target in one assay is FGFR2 (Homo sapiens (Human), UniProt P21802). The experiment in a line: Biochemical FGFR2 Caliper assay.
Another assay concerns SNU-16. In words: Cell SNU-16 assay. It counts as cell-based.
The mark [1] stands for this setting: Homo sapiens, SNU-16, SNU-16 cells.

FGFR2, sequence (P21802 22-821): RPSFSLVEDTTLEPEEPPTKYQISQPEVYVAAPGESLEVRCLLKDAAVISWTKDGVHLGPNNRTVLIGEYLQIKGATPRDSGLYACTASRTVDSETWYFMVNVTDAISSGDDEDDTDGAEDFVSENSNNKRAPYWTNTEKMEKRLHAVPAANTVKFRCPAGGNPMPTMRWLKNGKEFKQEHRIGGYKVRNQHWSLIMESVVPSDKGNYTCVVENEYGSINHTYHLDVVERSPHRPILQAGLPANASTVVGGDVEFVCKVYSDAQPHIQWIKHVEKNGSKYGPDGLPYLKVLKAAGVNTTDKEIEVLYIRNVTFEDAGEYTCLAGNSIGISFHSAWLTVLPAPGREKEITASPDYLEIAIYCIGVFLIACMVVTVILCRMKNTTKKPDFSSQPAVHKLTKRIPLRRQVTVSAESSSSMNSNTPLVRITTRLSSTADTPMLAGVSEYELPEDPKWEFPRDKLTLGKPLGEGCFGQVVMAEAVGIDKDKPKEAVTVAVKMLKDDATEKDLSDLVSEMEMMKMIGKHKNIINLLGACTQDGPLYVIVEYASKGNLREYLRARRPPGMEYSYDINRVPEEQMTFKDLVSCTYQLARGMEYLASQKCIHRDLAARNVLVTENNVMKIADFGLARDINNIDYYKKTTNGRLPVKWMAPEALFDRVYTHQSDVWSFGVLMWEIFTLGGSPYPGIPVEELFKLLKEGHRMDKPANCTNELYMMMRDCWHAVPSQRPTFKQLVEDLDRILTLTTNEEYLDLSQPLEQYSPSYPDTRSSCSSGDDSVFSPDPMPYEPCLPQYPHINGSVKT

On to `C=CS(=O)(=O)N1CCC(c2c(-c3ccc(C(=O)N4CCCC4)cc3)c3c(N)ncnc3n2C)C1` (stereo not drawn) [Example 859], for which the IC50 on FGFR2 and with SNU-16 (setting [1]) was 1000 to 100000 nM each time.
Take `C=C(C)C(=O)Nc1ccc(-c2c(-c3ccc4cn[nH]c4c3)c3c(N)ncnc3n2C)cc1` [Example 1301]: the IC50 on FGFR2 and in the assay on SNU-16 (setting [1]) was 1000 to 100000 nM in each case.
Regarding `C=Cc1nc2ccc(-c3c(-c4ccc(Oc5nccc(C)n5)cc4)c4c(N)ncnc4n3C)cc2[nH]1` [Example 1048], the concentration for half-maximal inhibition (IC50) – broadly, the concentration that gives 50% inhibition – against FGFR2 fell in the range of 250 to 1000 nM; with SNU-16 (setting [1]), 100 to 250 nM.
The like results for `C=CC(=O)Nc1ccc(-c2c(-c3ccc(=O)[nH]c3)c3c(N)ncnc3n2C)cc1` [Example 1158] were, in that order, less than 100 nM and no more than 100 nM.
The like results for `C=CC(=O)NCc1cccc(-c2c(-c3ccc(Oc4cccc(C)n4)cc3)c3c(N)ncnc3n2C)c1` [Example 1005] were, in that order, 250 to 1000 nM and 100 to 250 nM.
Turning to `C=C(C)C(=O)Nc1ccc(-c2nn3ccnc(N)c3c2C2=CC[C@H](C(=O)N3CCCC3)CC2)cc1` (single isomer, unassigned) [Example 869], the IC50 against FGFR2 lay within 1000 to 100000 nM; with SNU-16 (setting [1]), 250 to 1000 nM.
With `C=CC(=O)N1CCCc2c1nc(-c1c(-c3ccc(Oc4nccc(C)n4)cc3)c3c(N)ncnc3n1C)n2C` [Example 1045], the IC50 at FGFR2 and in the assay with SNU-16 (setting [1]) was 1000 to 100000 nM in each case.
Turning to `C=C(C)C(=O)Nc1ccc(-c2c(C3=CC[C@H](C(=O)N4CCCC[C@H]4C)CC3)c3c(N)ncnc3n2C)cc1` [Example 994], the IC50 at FGFR2 fell in the range of 1000 to 100000 nM; with SNU-16 (setting [1]), 100 to 250 nM.
The like results for `C=C(C)C(=O)Nc1ccc(-c2c(-c3cnc(-c4ccc(OC)cc4)s3)c3c(N)ncnc3n2C)cc1` [Example 1419] were, in that order, less than 100 nM and no more than 100 nM.
On to `C#Cc1ccc(-c2c(C3=CC[C@@H](C(=O)N4CCC[C@H]4C#C)CC3)c3c(N)ncnc3n2C)c(C)n1` (single isomer, unassigned) [Example 1230], for which the IC50 against FGFR2 was less than 100 nM; in the assay on SNU-16 (setting [1]) it was no more than 100 nM.
For the compound `C#Cc1cnc2cc(-c3c(-c4ccc(Oc5nccc(C)n5)c(F)c4)c4c(C)ncnc4n3C)ccc2n1` [Example 1408], the IC50 on FGFR2 is less than 100 nM; with SNU-16 (setting [1]) it was 100 to 250 nM.
Take `C=C(C)C(=O)Nc1cnc(-c2c(-c3ccc(Oc4cccc(C)n4)c(F)c3)c3c(N)ncnc3n2C)c(F)c1` [Example 1086]: the figures for the IC50 on FGFR2 and in the assay on SNU-16 (setting [1]) were less than 100 nM and no more than 100 nM, respectively.
Regarding `C=C(C)C(=O)Nc1ccc(-c2c(C3=CC[C@H](C(=O)N4CCCC45COC5)CC3)c3c(N)ncnc3n2C)c(C)c1` (single isomer, unassigned) [Example 1029], the half-inhibitory concentration (IC50) at FGFR2 was 1000 to 100000 nM; in the assay on SNU-16 (setting [1]) it was 250 to 1000 nM.
The like results for `C#Cc1cc(C)c(-c2c(-c3ccc(Oc4nccc(C)n4)c(F)c3)c3c(C)ncnc3n2C)c(F)n1` [Example 1400] were, in that order, less than 100 nM and no more than 100 nM.
As to `C=C(C)C(=O)Nc1ccc(-c2c(-c3ccc4cnccc4c3)c3c(N)ncnc3n2C)cc1` [Example 1286], the IC50 against FGFR2 and in the assay with SNU-16 (setting [1]) was 250 to 1000 nM in each case.
In the case of `C#Cc1nc2cc(-c3c(C4=CC[C@@H](C(=O)N5CCCC5)CC4)c4c(N)ncnc4n3C)ccc2n1C` [Example 1369], the IC50 is less than 100 nM at FGFR2 and no more than 100 nM in the assay with SNU-16 (setting [1]).
For the compound `C#Cc1cc(C)c(-c2c(C3=CC[C@@H](C(=O)N4CCCC4)CC3)c3c(N)ncnc3n2C)cn1` (single isomer, unassigned) [Example 1142], the values for the IC50 against FGFR2 and in the assay with SNU-16 (setting [1]) were less than 100 nM and no more than 100 nM, respectively.
As for `Cn1c([C@@H]2CCN(C#N)C2)c(-c2ccc(C(=O)N3CCCC3)cc2)c2c(N)ncnc21` (single isomer, unassigned) [Example 860], the 50% inhibitory concentration (IC50) on FGFR2 was less than 100 nM; with SNU-16 (setting [1]) it was 250 to 1000 nM.
For `C#Cc1cc(C)c(-c2c(C3=CC[C@@H](C(=O)N4CCC[C@H]4C#N)CC3)c3c(N)ncnc3n2C)c(C)n1` (atropisomer, axis not shown) [Example 1471], the IC50 was less than 100 nM against FGFR2 and no more than 100 nM in the assay with SNU-16 (setting [1]).
For `C#Cc1ccc(-c2c(-c3ccc(Oc4nccc(C)n4)c(F)c3)c3cncnc3n2C)c(C)n1` [Example 1183], the concentration for half-maximal inhibition (IC50) against FGFR2 is less than 100 nM; with SNU-16 (setting [1]), no more than 100 nM.
With `Cc1ccnc(Oc2ccc(-c3c(-c4ccc(-c5cnc(C#N)o5)cc4)n(C)c4ncnc(N)c34)cc2)n1` [Example 915], the IC50 on FGFR2 is 1000 to 100000 nM; in the assay on SNU-16 (setting [1]) it was 250 to 1000 nM.
Turning to `C#Cc1ncc(-c2c(-c3ccc(C(=O)N4CCC[C@@H]4C#C)cc3)c3c(N)ncnc3n2C)c(C)n1` [Example 1182], the IC50 at FGFR2 is less than 100 nM; in the assay on SNU-16 (setting [1]), no more than 100 nM.
The like results for `C=C(C)C(=O)Nc1ccc(-c2c(-c3ccc4nn[nH]c4c3)c3c(N)ncnc3n2C)cc1` [Example 1302] were, in that order, 1000 to 100000 nM and 1000 to 100000 nM.
Regarding `C#Cc1cc(C)c(-c2c(-c3ccc(Oc4ccn(C)n4)c(F)c3)c3c(N)ncnc3n2C)cn1` [Example 1246], the IC50 against FGFR2 is less than 100 nM; in the assay with SNU-16 (setting [1]), no more than 100 nM.
With `C#Cc1cc2c(cn1)-c1c(-c3ccc(Oc4nccc(C)n4)c(F)c3)c3c(N)ncnc3n1C[C@@H](C)O2` [Example 1456], the IC50 at FGFR2 is less than 100 nM; with SNU-16 (setting [1]), no more than 100 nM.
With `C#Cc1ccc(-c2c(-c3ccc(Oc4nccc(C)n4)c(F)c3)c3c(N)ncnc3n2C)c(F)n1` [Example 1200], the IC50 against FGFR2 and in the assay with SNU-16 (setting [1]) was 1000 to 100000 nM in each case.
`C=CC(=O)N1CC(c2c(C3=CC[C@H](C(=O)N4CCCC4)CC3)c3c(N)ncnc3n2C)C[C@@H]1C` (stereo partly drawn) [Example 889]: the IC50 on FGFR2 lay in the range of 250 to 1000 nM; in the assay on SNU-16 (setting [1]), 100 to 250 nM.
As for `C#Cc1cc(OC)c(-c2c(-c3ccc(Oc4nccc(C)n4)c(F)c3)c3c(Cl)ncnc3n2C)cn1` [Example 1403], the IC50 against FGFR2 is less than 100 nM; with SNU-16 (setting [1]), no more than 100 nM.
`C#Cc1ncc(-c2c(-c3ccc(Oc4nccc(C)n4)cc3)c3c(N)ncnc3n2C)c(C)n1` [Example 1062]: the concentration for half-maximal inhibition (IC50) against FGFR2 and with SNU-16 (setting [1]) was 1000 to 100000 nM in each case.
With `C#Cc1cc(C)c(-c2c(C3=CC[C@]4(CC3)Cc3ccc(C)nc3C4=O)c3c(N)ncnc3n2C)cn1` [Example 1398], the IC50 against FGFR2 was less than 100 nM; in the assay with SNU-16 (setting [1]), no more than 100 nM.
As for `C#Cc1cc(C)c(-c2c(C3=CC[C@H](C(=O)N4CCCC4)CC3)c3c(C)ncnc3n2C)cn1` (single isomer, unassigned) [Example 1201], the values for the IC50 against FGFR2 and in the assay with SNU-16 (setting [1]) were less than 100 nM and no more than 100 nM, respectively.
The like results for `C#Cc1ncc(-c2c(-c3ccc(Oc4nccc(C)n4)cn3)c3c(N)ncnc3n2C)c(C)c1F` [Example 1328] were, in that order, less than 100 nM and no more than 100 nM.
Consider `C=C(C)C(=O)Nc1ccc(-c2c(C3=CC[C@H](C(=O)N4CCC[C@H]4COC)CC3)c3c(N)ncnc3n2C)cc1` (single isomer, unassigned) [Example 982], for which the IC50 on FGFR2 was 1000 to 100000 nM; in the assay with SNU-16 (setting [1]), 250 to 1000 nM.
Consider `C=C(C)C(=O)Nc1nn(C)c(-c2c(-c3ccc(Oc4nccc(C)n4)cc3)c3c(N)ncnc3n2C)c1C` [Example 1010], for which the IC50 fell in the range of 1000 to 100000 nM on FGFR2 and 250 to 1000 nM in the assay on SNU-16 (setting [1]).
For `C=Cc1ncc(-c2c(-c3ccc(Oc4nccc(C)n4)cc3)c3c(N)ncnc3n2C)c(C)n1` [Example 1063], the IC50 is less than 100 nM at FGFR2 and no more than 100 nM in the assay with SNU-16 (setting [1]).
The like results for `C=CC(=O)N[C@H]1CCc2cc(-c3c(-c4ccc(Oc5nccc(C)n5)cc4)c4c(N)ncnc4n3C)ccc21` (single isomer, unassigned) [Example 929] were, in that order, 250 to 1000 nM and 100 to 250 nM.
As for `C#Cc1cc2c(cn1)-c1c(-c3ccc(Oc4nccc(C)n4)cc3)c3c(N)ncnc3n1CCC2` [Example 1391], the 50% inhibitory concentration (IC50) against FGFR2 is less than 100 nM; with SNU-16 (setting [1]) it was no more than 100 nM.
Turning to `COC(=O)Nc1ccc(-c2c(-c3ccc(C(=O)N4CCCC4)cc3)c3c(N)ncnc3n2C)cc1` [Example 902], the 50% inhibitory concentration (IC50) on FGFR2 and with SNU-16 (setting [1]) was 1000 to 100000 nM in each case.
For `C=CC(=O)Nc1ccc(-c2c(C3=CC[C@@H](C(=O)N4CCCC4)CC3)c3c(N)ncnc3n2C)c(C)c1` (single isomer, unassigned) [Example 1102], the IC50 against FGFR2 is less than 100 nM; in the assay with SNU-16 (setting [1]) it was no more than 100 nM.
For the compound `C=CC(=O)N1CC[C@@H](c2c(C3=CC[C@H](C(=O)N4CCCC4)CC3)c3c(N)ncnc3n2C)C1` (single isomer, unassigned) [Example 887], the IC50 against FGFR2 and in the assay with SNU-16 (setting [1]) was 1000 to 100000 nM in each case.
Turning to `C=C(C)C(=O)Nc1ccc(-c2c(C3=CC[C@@]4(CC3)Cc3ccc(C)nc3C4=O)c3c(N)ncnc3n2C)cc1` (single isomer, unassigned) [Example 1366], the IC50 at FGFR2 and with SNU-16 (setting [1]) was 1000 to 100000 nM in each case.
Take `C#Cc1cc(C)c(-c2c(C3=CC[C@H](C(=O)N4CCC[C@@H]4C)CC3)c3c(N)ncnc3n2C)cn1` [Example 1257]: the IC50 on FGFR2 and with SNU-16 (setting [1]) was 250 to 1000 nM in each case.
Turning to `C=C(C)C(=O)Nc1ccc(-c2c(C3=CC[C@@H](C(=O)N4CCCC45CCC5)CC3)c3c(N)ncnc3n2C)cc1` [Example 998], the IC50 on FGFR2 was less than 100 nM; with SNU-16 (setting [1]), no more than 100 nM.
Take `C#Cc1cc(C)c(-c2c(-c3ccc(Oc4nccc(C)n4)c(F)c3)c3c(N)ncnc3n2C)cn1` [Example 1119]: the IC50 was in the range of 1000 to 100000 nM against FGFR2 and 250 to 1000 nM in the assay on SNU-16 (SNU-16 cells).
With `C#Cc1cc(C)c(-c2c(C3=CC[C@@]4(CC3)Cc3ccc(C)nc3O4)c3c(N)ncnc3n2C)cn1` [Example 1393], the IC50 against FGFR2 and in the assay on SNU-16 (setting [1]) was 1000 to 100000 nM each time.
As to `C#Cc1cc(OC)c(-c2c(-c3ccc(Oc4nccc(C)n4)c(F)c3)c3c(C)ncnc3n2C)c(C)n1` (atropisomer, axis not shown) [Example 1446], the IC50 against FGFR2 was less than 100 nM; in the assay on SNU-16 (SNU-16 cells), no more than 100 nM.
On to `C=C(C)C(=O)Nc1ccc(-c2c(-c3ccc(-c4noc(C5CC5)n4)c(O)c3)c3c(N)ncnc3n2C)cc1` [Example 1373], for which the half-maximal inhibitory concentration (IC50) against FGFR2 was less than 100 nM; in the assay with SNU-16 (setting [1]), 100 to 250 nM.
The like results for `C=C(C)C(=O)Nc1ccc(-c2c(-c3cccc(N)c3)c3c(N)ncnc3n2C)cc1` [Example 1299] were, in that order, 1000 to 100000 nM and 1000 to 100000 nM.
